Measured values published in ChEMBL document CHEMBL3991601, “The target landscape of clinical kinase drugs” (Science, 2017).
Active and inactive are the calls of the source. Rule as the data show it, for most assays here: actives have a measured Kd and inactives only a lower limit.

Assays:
[1] = target: T1, Breakpoint cluster region protein (Homo sapiens, UniProt P11274)
T1 sequence (P11274 whole entry): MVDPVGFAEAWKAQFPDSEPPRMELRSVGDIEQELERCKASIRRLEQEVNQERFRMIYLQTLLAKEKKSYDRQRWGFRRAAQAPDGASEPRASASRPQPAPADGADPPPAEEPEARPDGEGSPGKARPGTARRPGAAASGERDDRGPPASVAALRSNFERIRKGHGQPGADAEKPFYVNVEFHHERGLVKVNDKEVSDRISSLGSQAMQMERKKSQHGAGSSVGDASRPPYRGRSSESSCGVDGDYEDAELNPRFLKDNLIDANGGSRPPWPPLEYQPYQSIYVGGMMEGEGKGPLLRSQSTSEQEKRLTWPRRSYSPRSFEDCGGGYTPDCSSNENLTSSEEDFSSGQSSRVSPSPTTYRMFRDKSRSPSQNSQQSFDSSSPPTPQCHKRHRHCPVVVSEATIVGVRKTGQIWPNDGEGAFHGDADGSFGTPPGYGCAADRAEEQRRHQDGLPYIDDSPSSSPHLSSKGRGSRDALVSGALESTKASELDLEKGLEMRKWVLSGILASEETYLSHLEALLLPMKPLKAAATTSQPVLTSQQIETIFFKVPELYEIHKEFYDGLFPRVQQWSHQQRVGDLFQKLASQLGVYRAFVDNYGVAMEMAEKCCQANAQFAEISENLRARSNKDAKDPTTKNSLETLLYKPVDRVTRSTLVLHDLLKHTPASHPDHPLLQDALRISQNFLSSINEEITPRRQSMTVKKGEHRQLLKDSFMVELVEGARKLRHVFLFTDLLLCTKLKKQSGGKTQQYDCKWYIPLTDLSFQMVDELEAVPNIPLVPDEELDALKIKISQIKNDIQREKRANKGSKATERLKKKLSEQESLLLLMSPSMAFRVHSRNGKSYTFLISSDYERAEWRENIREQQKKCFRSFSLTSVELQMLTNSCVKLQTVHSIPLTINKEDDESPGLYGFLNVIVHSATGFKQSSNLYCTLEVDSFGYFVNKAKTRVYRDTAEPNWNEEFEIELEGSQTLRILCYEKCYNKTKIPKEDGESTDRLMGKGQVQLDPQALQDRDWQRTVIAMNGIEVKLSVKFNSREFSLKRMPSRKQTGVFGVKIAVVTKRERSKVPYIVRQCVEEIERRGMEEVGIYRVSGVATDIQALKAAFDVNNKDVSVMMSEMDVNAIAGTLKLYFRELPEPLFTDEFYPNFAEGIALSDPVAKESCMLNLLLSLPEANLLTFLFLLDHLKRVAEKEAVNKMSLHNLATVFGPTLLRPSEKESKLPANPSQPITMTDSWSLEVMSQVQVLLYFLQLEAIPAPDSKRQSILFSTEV

[2] = target: T2, Cysteine--tRNA ligase, cytoplasmic (Homo sapiens, UniProt P49589)
T2 sequence (P49589 whole entry): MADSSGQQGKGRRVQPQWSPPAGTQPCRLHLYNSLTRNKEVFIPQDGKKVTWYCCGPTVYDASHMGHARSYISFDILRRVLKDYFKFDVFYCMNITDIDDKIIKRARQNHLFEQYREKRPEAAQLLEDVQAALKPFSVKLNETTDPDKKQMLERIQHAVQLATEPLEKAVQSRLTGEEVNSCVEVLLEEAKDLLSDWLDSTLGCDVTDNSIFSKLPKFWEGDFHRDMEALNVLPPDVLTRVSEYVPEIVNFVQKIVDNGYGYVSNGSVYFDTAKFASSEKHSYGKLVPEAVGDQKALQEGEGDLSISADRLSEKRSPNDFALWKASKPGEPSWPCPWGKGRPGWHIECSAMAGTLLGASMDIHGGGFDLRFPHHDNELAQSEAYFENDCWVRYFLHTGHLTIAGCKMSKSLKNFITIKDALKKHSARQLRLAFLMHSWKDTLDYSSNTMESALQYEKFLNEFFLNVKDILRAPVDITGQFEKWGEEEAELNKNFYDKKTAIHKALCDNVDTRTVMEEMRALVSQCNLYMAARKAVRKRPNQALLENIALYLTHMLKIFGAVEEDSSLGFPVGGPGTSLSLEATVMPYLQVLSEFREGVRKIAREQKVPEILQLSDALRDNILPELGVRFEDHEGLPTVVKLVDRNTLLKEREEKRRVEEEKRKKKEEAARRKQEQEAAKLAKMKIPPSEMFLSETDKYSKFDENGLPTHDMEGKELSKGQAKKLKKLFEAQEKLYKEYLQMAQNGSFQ

[3] = target: T3, Serine/threonine-protein kinase ICK (Homo sapiens, UniProt Q9UPZ9)
T3 sequence (Q9UPZ9 whole entry): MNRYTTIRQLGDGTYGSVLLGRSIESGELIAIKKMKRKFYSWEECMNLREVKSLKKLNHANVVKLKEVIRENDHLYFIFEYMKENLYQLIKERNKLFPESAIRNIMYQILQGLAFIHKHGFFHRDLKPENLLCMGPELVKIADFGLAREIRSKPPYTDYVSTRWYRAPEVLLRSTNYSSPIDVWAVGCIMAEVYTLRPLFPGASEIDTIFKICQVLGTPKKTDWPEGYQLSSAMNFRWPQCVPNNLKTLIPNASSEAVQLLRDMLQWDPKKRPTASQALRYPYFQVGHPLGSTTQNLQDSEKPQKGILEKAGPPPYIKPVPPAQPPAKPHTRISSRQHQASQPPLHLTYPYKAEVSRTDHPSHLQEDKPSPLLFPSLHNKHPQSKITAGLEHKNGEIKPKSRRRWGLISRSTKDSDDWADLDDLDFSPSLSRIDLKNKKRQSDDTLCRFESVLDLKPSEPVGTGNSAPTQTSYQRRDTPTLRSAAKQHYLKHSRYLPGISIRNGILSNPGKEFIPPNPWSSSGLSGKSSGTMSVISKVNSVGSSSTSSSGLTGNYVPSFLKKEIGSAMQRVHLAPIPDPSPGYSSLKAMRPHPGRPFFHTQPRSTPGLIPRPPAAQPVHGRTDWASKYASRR

[4] = target: Tyrosine-protein kinase Lyn (Homo sapiens, UniProt P07948)
[5] = target: Ras-related protein Rab-6A (Homo sapiens, UniProt P20340)
[6] = target: Ribosomal protein S6 kinase alpha-3 (Homo sapiens, UniProt P51812)
[7] = target: STE20-like serine/threonine-protein kinase (Homo sapiens, UniProt Q9H2G2)
[8] = target: Serine/threonine-protein kinase 16 (Homo sapiens, UniProt O75716)
Also: in the data inactive means no Kd found up to 30 µM.

Tyrosine-protein kinase Lyn, sequence (P07948 whole entry): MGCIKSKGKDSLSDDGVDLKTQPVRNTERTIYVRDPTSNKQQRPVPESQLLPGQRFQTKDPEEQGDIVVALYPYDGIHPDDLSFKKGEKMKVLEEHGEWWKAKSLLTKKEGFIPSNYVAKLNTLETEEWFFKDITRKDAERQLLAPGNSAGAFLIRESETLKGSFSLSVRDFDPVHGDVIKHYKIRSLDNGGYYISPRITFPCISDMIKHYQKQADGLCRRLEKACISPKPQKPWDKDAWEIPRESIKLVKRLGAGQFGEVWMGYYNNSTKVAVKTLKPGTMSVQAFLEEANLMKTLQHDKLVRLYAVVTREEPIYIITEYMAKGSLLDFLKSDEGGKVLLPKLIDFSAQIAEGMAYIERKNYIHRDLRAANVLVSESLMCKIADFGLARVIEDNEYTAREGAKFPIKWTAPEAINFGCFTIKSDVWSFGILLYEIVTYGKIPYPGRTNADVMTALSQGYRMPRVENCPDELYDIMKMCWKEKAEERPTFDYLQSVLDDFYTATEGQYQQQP
Serine/threonine-protein kinase 16, sequence (O75716 whole entry): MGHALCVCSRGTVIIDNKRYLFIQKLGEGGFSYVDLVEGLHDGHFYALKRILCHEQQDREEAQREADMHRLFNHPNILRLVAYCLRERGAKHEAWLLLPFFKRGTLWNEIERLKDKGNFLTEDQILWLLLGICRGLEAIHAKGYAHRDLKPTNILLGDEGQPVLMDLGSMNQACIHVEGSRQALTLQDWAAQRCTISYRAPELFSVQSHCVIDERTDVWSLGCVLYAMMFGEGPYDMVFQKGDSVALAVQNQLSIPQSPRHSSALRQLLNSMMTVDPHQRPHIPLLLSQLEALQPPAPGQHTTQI
STE20-like serine/threonine-protein kinase, sequence (Q9H2G2 whole entry): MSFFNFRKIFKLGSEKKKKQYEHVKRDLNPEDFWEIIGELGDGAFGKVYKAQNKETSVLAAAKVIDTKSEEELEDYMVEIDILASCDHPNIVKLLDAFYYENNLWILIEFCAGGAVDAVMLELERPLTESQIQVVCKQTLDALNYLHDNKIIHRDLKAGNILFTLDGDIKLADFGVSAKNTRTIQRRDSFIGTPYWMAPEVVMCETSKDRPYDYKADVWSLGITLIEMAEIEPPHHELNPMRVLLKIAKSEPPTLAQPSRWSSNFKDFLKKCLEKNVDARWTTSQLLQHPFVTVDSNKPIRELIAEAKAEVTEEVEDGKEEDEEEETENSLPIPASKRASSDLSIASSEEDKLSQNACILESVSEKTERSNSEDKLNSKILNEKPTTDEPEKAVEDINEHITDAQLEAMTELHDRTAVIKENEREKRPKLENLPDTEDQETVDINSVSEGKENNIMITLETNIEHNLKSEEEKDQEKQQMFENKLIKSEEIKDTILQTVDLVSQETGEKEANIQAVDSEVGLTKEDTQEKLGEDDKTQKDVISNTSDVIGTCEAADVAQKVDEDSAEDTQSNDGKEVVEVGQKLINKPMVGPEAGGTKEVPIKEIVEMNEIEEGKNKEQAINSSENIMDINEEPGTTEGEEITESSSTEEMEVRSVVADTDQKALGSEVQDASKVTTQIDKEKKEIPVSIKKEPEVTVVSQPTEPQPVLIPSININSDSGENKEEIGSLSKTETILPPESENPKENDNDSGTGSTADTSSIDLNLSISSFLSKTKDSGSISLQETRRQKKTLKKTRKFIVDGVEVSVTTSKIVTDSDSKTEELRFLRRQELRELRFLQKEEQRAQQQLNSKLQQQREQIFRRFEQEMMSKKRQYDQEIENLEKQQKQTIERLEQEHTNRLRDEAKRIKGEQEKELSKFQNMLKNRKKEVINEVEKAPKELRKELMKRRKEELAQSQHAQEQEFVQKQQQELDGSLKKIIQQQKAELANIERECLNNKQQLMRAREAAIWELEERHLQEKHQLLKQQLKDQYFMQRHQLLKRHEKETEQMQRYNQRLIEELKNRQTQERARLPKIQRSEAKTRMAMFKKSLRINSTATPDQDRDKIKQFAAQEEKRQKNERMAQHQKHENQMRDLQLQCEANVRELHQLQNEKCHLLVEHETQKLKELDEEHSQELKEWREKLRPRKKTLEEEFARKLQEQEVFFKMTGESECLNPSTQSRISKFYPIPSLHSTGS
Ribosomal protein S6 kinase alpha-3, sequence (P51812 whole entry): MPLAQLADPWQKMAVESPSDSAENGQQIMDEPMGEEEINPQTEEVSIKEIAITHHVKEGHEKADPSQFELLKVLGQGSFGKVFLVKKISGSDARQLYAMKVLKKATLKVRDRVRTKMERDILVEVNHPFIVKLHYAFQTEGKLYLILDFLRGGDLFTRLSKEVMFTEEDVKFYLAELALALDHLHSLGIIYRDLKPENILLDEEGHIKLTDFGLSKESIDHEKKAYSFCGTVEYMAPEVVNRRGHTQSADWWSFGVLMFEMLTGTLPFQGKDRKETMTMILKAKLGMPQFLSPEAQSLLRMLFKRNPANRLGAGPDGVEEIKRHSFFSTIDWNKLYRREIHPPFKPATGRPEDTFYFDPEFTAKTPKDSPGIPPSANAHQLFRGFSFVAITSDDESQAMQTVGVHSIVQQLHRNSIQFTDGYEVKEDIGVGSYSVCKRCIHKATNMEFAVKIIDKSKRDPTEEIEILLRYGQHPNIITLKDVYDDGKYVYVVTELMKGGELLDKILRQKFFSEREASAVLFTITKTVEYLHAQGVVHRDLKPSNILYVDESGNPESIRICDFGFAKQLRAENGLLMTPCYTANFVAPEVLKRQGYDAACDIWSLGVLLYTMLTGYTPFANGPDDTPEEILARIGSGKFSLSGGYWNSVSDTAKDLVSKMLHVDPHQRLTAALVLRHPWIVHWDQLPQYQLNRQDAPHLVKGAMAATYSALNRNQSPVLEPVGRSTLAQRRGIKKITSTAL
Ras-related protein Rab-6A, sequence (P20340 whole entry): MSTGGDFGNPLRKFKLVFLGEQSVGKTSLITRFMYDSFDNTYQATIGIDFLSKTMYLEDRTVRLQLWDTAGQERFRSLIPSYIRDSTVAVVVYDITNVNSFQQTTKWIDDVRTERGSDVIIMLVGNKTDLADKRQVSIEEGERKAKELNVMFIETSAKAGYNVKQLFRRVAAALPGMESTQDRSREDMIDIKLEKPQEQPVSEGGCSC

Kd [1] | Kd [2] | Kd [3] | Kd [4] | Kd [5] | Kd [6] | Kd [7] | Kd [8] | SMILES
0.296 µM (active) | > 30 µM (inactive) | > 30 µM (inactive) | > 30 µM (inactive) | > 30 µM (inactive) | > 30 µM (inactive) | > 30 µM (inactive) | > 30 µM (inactive) | C[C@@H](NC(=O)c1ncnc(N)c1Cl)c1ncc(C(=O)Nc2cc(C(F)(F)F)c(Cl)cn2)s1 [TOVORAFENIB]
0.003 µM (active) | > 30 µM (inactive) | > 30 µM (inactive) | 1.33 µM (active) | > 30 µM (inactive) | > 30 µM (inactive) | 0.138 µM (active) | > 30 µM (inactive) | CC(C)c1cc(CNc2nc(Nc3cc(C4CC4)[nH]n3)cc(N3CCN(C)CC3)n2)on1 [XL-228]
> 30 µM (inactive) | > 30 µM (inactive) | > 30 µM (inactive) | > 30 µM (inactive) | > 30 µM (inactive) | > 30 µM (inactive) | 6.37 µM (active) | > 30 µM (inactive) | CN1C/C=C/CCOc2cccc(c2)-c2ccnc(n2)Nc2cccc(c2)C1 [ZOTIRACICLIB]

SMILES | Kd [1] | Kd [2] | Kd [3] | Kd [4] | Kd [5] | Kd [6] | Kd [7] | Kd [8]
Cc1cc(Nc2ncnc3ccc(NC4=NC(C)(C)CO4)cc23)ccc1Oc1ccn2ncnc2c1 [TUCATINIB] | > 30 µM (inactive) | > 30 µM (inactive) | > 30 µM (inactive) | > 30 µM (inactive) | > 30 µM (inactive) | > 30 µM (inactive) | > 30 µM (inactive) | > 30 µM (inactive)
